From patent US6593365B1, “Diflunisal esters and related compounds” (The University of Queensland, priority 1997, dated 2003)
Several values for one entry are separate records, joined by “and”; a condition that tells them apart may be missing. Identical values can stand only once. Marks after values point to notes of the source that are not given here.

Tests used:
[1] = Intrinsic (maximum) solubility in water at pH 1.5; format: physicochemical; conditions: for solubility: 25 °C, pH 1.5, simulated gastric fluid
Experimental: The pH conditions were chosen to ensure that the solubility of the unionised species was estimated. […] Lea & Febiger/Philadelphia. […] […] The solvent (9.9 mL) was then added to the test tube. […] The test tube was sonicated for 15 minutes and centrifuged for 10 minutes (3000 g at 25° C.). An aliquot was filtered (Minisart 0.45 μm filter, Satorius) and diluted with HPLC mobile phase, then assayed. The tube was stored carefully in a 25° C. water bath after sampling and the remaining suspension was again sonicated and the process repeated 7 times at four hourly intervals. In these assays, standard curves were prepared by directly dissolving the esters in mobile phase. Concentrations for standard curves ranged from 1-50 μg/mL for all compounds. Furthermore, a manual injector (Waters Model U6K) was used (20 μL sample loop) which ensured that 20 μL was consistently injected onto the column and precluded the need for an internal standard.

[2] = test system: in-situ perfused rat liver; assay: In-situ rat liver perfusion bolus studies, moments and dispersion model analysis (Example 3); format: in vitro ADME, Sprague-Dawley rats; conditions: n = 3, Mean S.E.; for RN (efficiency number) / a (dispersion model): determined using equation 5 & 6; for CV^2 (normalized variance) / F (hepatic availability) / MTT (mean transit time): moments analysis, bolus, 30 mL/min; for CV^2 (normalized variance) / F (hepatic availability) / MTT (mean transit time) / Efflux rate coefficient (k2) / Elimination rate coefficient (kel) / Influx rate coefficient (k1): 2% BSA perfusate; for Efflux rate coefficient (k2) / Elimination rate coefficient (kel) / Influx rate coefficient (k1): two-compartment dispersion model fitting
Experimental: Mature female Sprague-Dawley rats were obtained from the University of Queensland Animal Breeding Facility and weighed between 180-270 grams. The animals were given access to a standard laboratory diet prior to experiment. Rats were anaesthetised by interperitoneal injection of pentobarbital sodium (60 mg/kg, Boehringer Ingelhein). […] The bile duct was cannulated with PE10 (Clay Adams, New Jersey). 0.025 gm/L taurocholic acid (Sigma Co., USA.) was dissolved in perfusate to stimulate bile production. The portal vein was then cannulated using a 16 G intravenous catheter and the liver was perfused via this cannula with 2% BSA Krebs-Henseleit bicarbonate buffer (pH 7.4) and oxygenated using a silastic tubing lung ventilated with carbogen (95% O2/5% CO2). The perfusion system used was non-recirculating and employed a peristaltic pump (Cole-Parmer, Illinois).
The animal was placed in a temperature controlled perfusion cabinet at 37° C. Liver viability was assessed by oxygen consumption, bile flow, diflunisal esters' extraction and macroscopic appearance.
Perfusions were made at 30 mL/min in each liver. After a 10 minute perfusion stabilization period, injectate (50 μL) containing Evans Blue (3 mg/mL) and [^3H]-water in a saturated solution of the particular O-acyl diflunisal ester or pregenerated diflunisal (which was injected as parent compound) in 2% BSA Krebs-Henseleit buffer, was injected into the liver with outlet samples collected via a fraction collector over one minute.
Aliquots (100 μL) of pooled perfusate samples were taken for Evans Blue spectrophotometric analysis and [^3H]-water scintillation counting before adjusting pH. These pooled samples were then acidified to pH 2.0 by addition of 1 M HCl and extracted into 2.5 volumes of ether. […] The ether fraction was then removed and reduced to approximately 100 μL by evaporation under air and prepared as before for HPLC analysis. A known concentration of each buffer solution of ester was concurrently extracted and assayed with the perfusate samples to assess the degree of spontaneous hydrolysis occurring over the duration of the extraction procedure. This non-enzymatic hydrolysis was converted for in the analysis. The total recovery of diflunisal esters extracted using this technique was >90%.
The F, MTT and CV^2 for the diflunisal esters (or pregenerated DF) and the reference solutes (EB and [^3H]-water) were determined from the outflow concentration versus time profile using equation (1)-(4), with the assistance of the Moments Calculator 2.2 program for Macintosh computer developed by Robert Purves (Purves RD, 1994, J. Pharm. Sci. 83 202-205). [formula] [formula]
where Q is the perfusate flow rate, D is the dose of diflunisal esters administered. The area under the concentration-time curve (AUC) and the first moment curve (AUMC) were estimated by the trapezoidal rule integration with appropriate modification for tail (Mellick et al., 1996, submitted for publication). [formula]
The moment data was further examined using the dispersion model of hepatic elimination which defines F of an extracted solute by the equation (Roberts et al., 1990, J. Pharmacokin. Biopharm. 18 209-234): [formula]
a={square root over (1+4RNDN)} (6)
DN is the dispersion number which describes the spread of solute residence times in the liver following bolus input and equal half the normalized variance for a non-extracted reference indicator [formula]
RN is the efficiency number which characterises the elimination of solute by the liver and is defined by the equation: [formula]
(Gillette, 1971, Ann. N. Acad. Sci. 179 43-61)), and Q is the perfusate flow rate. If F for a solute and the CV^2 for a non-extracted reference solute (eg. EB) are known, we can solve for “a” using equation (5) and then for “RN” using equation (6).
The dispersion model expressions (Roberts et al., 1990) for MTT and CV^2 are presented in equations (8) and (9). [formula] [formula] […]

CC(=O)Oc1ccc(-c2ccc(F)cc2F)cc1C(=O)O [Compound C2D, acetyldiflunisal]
Maximum solubility ([1]; water at pH 1.5, 25 1° C., U = Undetectable): 30 µM
RN (efficiency number) [2]: 2.58 ± 0.02
a (dispersion model) [2]: 2.26 ± 0.02^c
CV^2 (normalized variance) [2]: 0.70 ± 0.19
F (hepatic availability) [2]: 0.21 ± 0.03
MTT (mean transit time) [2]: 10.36 ± 2.31 s
RN/fub (removal of unbound solute) [2]: 9.57 ± 0.37
RN/fub (removal of unbound solute) ([2]; listed as acetyl): 9.57
Efflux rate coefficient (k2) [2]: 0.25 ± 0.03 s⁻¹
Elimination rate coefficient (kel) [2]: 0.18 ± 0.02 s⁻¹
Influx rate coefficient (k1) [2]: 1.20 ± 0.11 s⁻¹

CCCC(=O)Oc1ccc(-c2ccc(F)cc2F)cc1C(=O)O [Compound C4D, n-butanoyldiflunisal]
RN (efficiency number) [2]: 1.56 ± 0.02
a (dispersion model) [2]: 1.87 ± 0.01
CV^2 (normalized variance) [2]: 1.01 ± 0.18
F (hepatic availability) [2]: 0.34 ± 0.01
MTT (mean transit time) [2]: 7.73 ± 0.99 s
RN/fub (removal of unbound solute) [2]: 11.17 ± 0.38
Efflux rate coefficient (k2) [2]: 0.08 ± 0.04 s⁻¹
Elimination rate coefficient (kel) [2]: 0.16 ± 0.07 s⁻¹
Influx rate coefficient (k1) [2]: 0.41 ± 0.12 s⁻¹

CCCC(=O)Oc1ccccc1C(=O)O [Compound C4SA, n-butanoylsalicylic acid]
solubility [1]: 570 µg/mL and 2700 µM

CCCCC(=O)Oc1ccc(-c2ccc(F)cc2F)cc1C(=O)O [Compound C5D, n-pentanoyldiflunisal]
RN (efficiency number) [2]: 1.32 ± 0.03
a (dispersion model) [2]: 1.77 ± 0.02
CV^2 (normalized variance) [2]: 1.02 ± 0.33
F (hepatic availability) [2]: 0.38 ± 0.02
MTT (mean transit time) [2]: 6.62 ± 0.84 s
RN/fub (removal of unbound solute) [2]: 11.04 ± 0.39
Efflux rate coefficient (k2) [2]: 0.14 ± 0.07 s⁻¹
Elimination rate coefficient (kel) [2]: 0.18 ± 0.06 s⁻¹
Influx rate coefficient (k1) [2]: 0.51 ± 0.16 s⁻¹

CCCCC(=O)Oc1ccccc1C(=O)O [Compound C5SA, n-pentanoylsalicylic acid]
solubility [1]: 74 µg/mL and 330 µM

CCCCCC(=O)Oc1ccc(-c2ccc(F)cc2F)cc1C(=O)O [Compound C6D, n-hexanoyldiflunisal]
RN (efficiency number) [2]: 1.32 ± 0.03
a (dispersion model) [2]: 1.77 ± 0.03
CV^2 (normalized variance) [2]: 1.15 ± 0.48
F (hepatic availability) [2]: 0.38 ± 0.04
MTT (mean transit time) [2]: 6.19 ± 0.95 s
RN/fub (removal of unbound solute) [2]: 16.50 ± 0.22
RN/fub (removal of unbound solute) ([2]; listed as hexanoyl): 16.50
Efflux rate coefficient (k2) [2]: 0.06 ± 0.03 s⁻¹
Elimination rate coefficient (kel) [2]: 0.15 ± 0.03 s⁻¹
Influx rate coefficient (k1) [2]: 0.63 ± 0.24 s⁻¹

CCCCCC(=O)Oc1ccccc1C(=O)O [Compound C6SA, n-hexanoylsalicylic acid]
solubility [1]: 19 µg/mL and 80 µM

O=C(O)c1cc(-c2ccc(F)cc2F)ccc1O [DF, 2′,4′-difluoro-4-hydroxy-3-biphenylcarboxylic acid, reference compound]
a (dispersion model) [2]: 1.33 ± 0.01
CV^2 (normalized variance) [2]: 0.99 ± 0.27
MTT (mean transit time) [2]: 6.80 ± 0.94 s
RN/fub (removal of unbound solute) [2]: 9.51 ± 0.18
Efflux rate coefficient (k2) [2]: 0.02 ± 0.01 s⁻¹
Elimination rate coefficient (kel) [2]: 0.06 ± 0.01 s⁻¹
Influx rate coefficient (k1) [2]: 0.18 ± 0.03^b sec^−1
